Several values for one entry are separate records, joined by “and”; a condition that tells them apart may be missing. Equal entries are not always repeated.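 Method: 48-hour compound exposure of cells in 96-well plates, five concentrations, linear interpolation of endpoints. The concentration for 50% growth inhibition is given as GI50. TGI: total growth inhibition.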
Legend:
Assay in all cases: DTP human tumour cell line panel, 48 h
MCF7 breast = test system: MCF7 breast
OVCAR-5 ovarian = test system: OVCAR-5 ovarian
M14 melanoma = test system: M14 melanoma
NCI-H23 lung = test system: NCI-H23 lung
SK-MEL-5 melanoma = test system: SK-MEL-5 melanoma
UO-31 renal = test system: UO-31 renal
UACC-62 melanoma = test system: UACC-62 melanoma
NCI-H522 lung = test system: NCI-H522 lung
HOP-62 NSCLC = test system: HOP-62 NSCLC
MOLT-4 leukemia = test system: MOLT-4 leukemia

Row | Structure (SMILES) | GI50 (MCF7 breast) [µM] | TGI (MCF7 breast) | GI50 (OVCAR-5 ovarian) [µM] | TGI (OVCAR-5 ovarian) | GI50 (M14 melanoma) [µM] | TGI (M14 melanoma) [µM] | GI50 (NCI-H23 lung) [µM] | TGI (NCI-H23 lung) | GI50 (SK-MEL-5 melanoma) [µM] | TGI (SK-MEL-5 melanoma) | GI50 (UO-31 renal) [µM] | TGI (UO-31 renal) | GI50 (UACC-62 melanoma) [µM] | TGI (UACC-62 melanoma) | GI50 (NCI-H522 lung) [µM] | TGI (NCI-H522 lung) | GI50 (HOP-62 NSCLC) [µM] | TGI (HOP-62 NSCLC) | GI50 (MOLT-4 leukemia) [µM] | TGI (MOLT-4 leukemia) [µM]
1 | CCN(CC)CCOc1ccc(/C(=C(\C)Cc2ccc(OC)cc2)c2ccc(OC(=O)NCc3ccccc3)cc2)cc1 | 0.269 | 2.62 µM | 3.63 | 14.6 µM | 1.7 | 3.26 | 3.24 | 13.3 µM | 1.75 | 3.16 µM | 1.52 | 3.02 µM | 1.92 | 3.55 µM | 1.93 | 4.24 µM | 2.09 | 4.87 µM | 2.11 | 5.73
2 | Cc1cc(O)c(C(c2cccnc2)c2c(O)cc(C)[nH]c2=O)c(=O)[nH]1 |  | > 100 µM |  | > 100 µM |  | > 100 |  | > 100 µM |  | > 100 µM |  | > 100 µM |  | > 100 µM |  | > 100 µM |  | > 100 µM |  | > 100
3 | CN1CCC[C@@H]1CCO[C@](C)(c1ccccc1)c1ccc(Cl)cc1 | 2.98 | 11.7 µM | 5.34 | 18.6 µM | 1.82 | 3.45 | 10.5 | 24.3 µM | 1.54 | 2.89 µM | 2.83 | 16.3 µM | 1.81 | 3.99 µM | 4.63 | 17.1 µM | 10.1 | 23.1 µM | 4.12 | 18.1
4 | CCOC(=O)c1c(C)nc2ccc(Cl)cc2c1-c1ccccc1 | 24 | 70.4 µM | 19.8 | 44.6 µM | 18.7 | 52.3 | 28.7 | > 100 µM | 14.5 | 29 µM | 14.8 | 31.1 µM | 10.7 | 26.6 µM | 14.2 | 36.6 µM | 15 | 31.7 µM | 16.3 | 43.4
5 | CCOC(=O)c1ccc(N(CCOS(C)(=O)=O)CCOS(C)(=O)=O)cc1C | 17.5 | > 100 µM | 38.1 | 94 µM | 40.5 | > 100 | 15.1 | 55.5 µM | 35.9 | > 100 µM | 23.1 | 45.9 µM | 23.8 | 95.4 µM | 18.8 | 61.8 µM | 17.6 | 55 µM | 7.01 | > 100
6 | O=C(Nc1nccs1)c1cc2c(cc1Cl)Sc1nccn1S2(=O)=O | 6.72 | 19.9 µM | 21.7 | 46 µM | 17.8 | 34.6 | 16.9 | 33.7 µM | 16.5 | 30 µM | 4.41 | 14.7 µM | 14.3 | 27.4 µM | 1.23 | 2.85 µM | 14.8 | 30.2 µM | 19.1 | 42.1
7 | O=C1/C(=C\C(Cl)=C/c2ccc([N+](=O)[O-])cc2)SC(=S)N1CCc1ccc(O)cc1 | 0.365 | 1.66 µM | 0.447 | 1.53 µM | 0.494 | 1.84 | 0.632 | 2.17 µM | 1.63 | 3.01 µM | 0.324 | 1.24 µM | 0.566 | 1.86 µM | 0.502 | 2.67 µM | 1.41 | 4.22 µM | 0.352 | > 100
8 | COc1ccc(-c2nn(-c3cccc(NC(=O)Nc4ccc(Cl)c(C(F)(F)F)c4)c3)cc2-c2ccncc2)cc1Cl | 2.19 | 13.7 µM | 4.36 | 30.8 µM | 1.9 | 4.44 | 3.01 | 14.3 µM | 1.69 | 3.61 µM | 2.12 | 13.3 µM | 1.93 | 5.01 µM | 1.85 | 6.77 µM | 3.37 | 17.3 µM | 2.08 | 6.74
9 | Cc1cccc2c(N=Nc3ccc(S(N)(=O)=O)cc3)c(O)[nH]c12 | > 25 | > 25 µM | > 25 | > 25 µM | > 25 | > 25 | > 25 | > 25 µM | > 25 | > 25 µM | > 25 | > 25 µM | > 25 | > 25 µM | > 25 | > 25 µM | > 25 | > 25 µM | > 25 | > 25
10 | Cc1c2c(nn1C(=O)c1nn(-c3ccc(Cl)cc3)cc1O)-c1ccccc1CC2 | 0.115 | > 100 µM | 0.0723 | > 100 µM | 0.0842 | > 45.5 | 0.0411 | > 100 µM | 0.313 |  | 0.0603 | > 100 µM | 0.0507 |  | 0.0376 | 0.717 µM | 0.0432 | > 100 µM | 0.0415 | > 39.5
11 | O=C1C(=O)c2ccccc2-c2ccccc21 | 1.67 | 3.8 µM | 1.75 | 3.52 µM | 1.76 | 3.29 | 1.68 | 3.99 µM | 1.39 | 2.79 µM | 1.44 | 2.82 µM | 1.52 | 3.03 µM | 1.75 | 4.12 µM | 1.72 | 5.24 µM | 1.56 | 4.75
12 | CN[C@]12CC3(C=CC(=O)C=C3)O[C@@]1(Cc1ccc(OC)cc1)N(C)C(=O)N2 | 0.778 | 15.1 µM | 2.21 | 5.59 µM | 1.99 | 7.6 | 2.88 | 9.35 µM | 1.65 | 3.15 µM | 1.47 | 2.89 µM | 1.46 | 3.34 µM | 0.371 | 2.14 µM | 2.48 | 11.2 µM | 2.8 | 9.88
13 | COc1ccc(-c2cnc3ccnn3c2-c2cc(OC)c(OC)c(OC)c2)cc1 | 3.51 | > 100 µM | 4.42 | > 100 µM | 2.65 | 35.5 | 8.29 | > 100 µM | 4.53 | > 100 µM | 4.25 | > 100 µM | 2.15 | > 100 µM | 0.857 | > 100 µM | 7.49 | > 100 µM | 4.62 | > 100
14 | CC(=O)O[C@H]1C(=O)O[C@@H]2C[C@H]3C(C)=CC(=O)[C@@H](O)[C@]3(C)[C@H]3[C@@]4(O)OC[C@]32[C@@H]1[C@@H](C)[C@H]4O | < 0.01 | 0.0593 µM and 0.0543 µM | 0.0588 | 1.11 µM and 3.51 µM |  | 0.0838 | < 0.0141 | 0.0904 µM and 0.453 µM | < 0.01 | 0.0287 µM and 0.052 µM | 0.0958 | 1.21 µM and 4.45 µM | 0.0271 | 0.531 µM and 0.2 µM | < 0.0116 | 0.226 µM and 0.0582 µM | < 0.0122 | 0.07 µM and 0.314 µM | < 0.01 | 
15 | c1cc(OCCN2CCCCCC2)ccc1CNc1ccc2nc(CCC3CCCCC3)[nH]c2c1 | 1.72 | 4.12 µM | 2.48 | 7.33 µM | 1.72 | 3.32 | 2.36 | 6.62 µM | 1.74 | 3.17 µM | 1.37 | 2.72 µM | 1.84 | 3.35 µM | 1.97 | 4.34 µM | 1.85 | 3.81 µM | 1.69 | 6.74
16 | O=c1cc(-c2ccc(Cl)cc2)[nH]c2ncccc12 |  | > 100 µM |  | > 100 µM |  | > 100 |  | > 100 µM | 29 | > 100 µM |  | > 100 µM |  | > 100 µM |  | > 100 µM |  | > 100 µM |  | > 100
17 | ClCc1ccc(-c2ccc(Cn3cnc4c(Cl)nc(Cl)nc43)cc2)cc1 | 1.69 | 3.51 µM | 17.8 | 32.4 µM | 13.4 | 32.3 | 3.18 | 14.4 µM | 2.75 | 12.3 µM | 3.32 | 8.18 µM | 2.49 | 6.35 µM | 2.33 | 6.79 µM | 1.92 | 4 µM | 1.95 | 6.97
18 | O=C1N=C(c2ccccc2)OC1C(=O)c1ccccc1 (stereo unspecified) |  | > 100 µM |  | > 100 µM |  | > 100 |  | > 100 µM |  | > 100 µM |  | > 100 µM |  | > 100 µM |  | > 100 µM |  | > 100 µM |  | > 100
19 | COc1ccc(N(CC(=O)NCCC[Te]c2ccccc2)C(=O)CCSC2=C(C)C(=O)c3ccccc3C2=O)cc1 | 0.585 | 11.3 µM | 0.498 | 1.88 µM | 1.17 | 2.99 | 0.623 | 2.83 µM | 1.56 | 2.96 µM | 0.437 | 2.45 µM | 1.82 | 4.31 µM | 0.948 | 3.59 µM | 0.582 | 1.58 µM | 0.911 | 
